Laboratory results from US20260374754A1, “N-((ISOQUINOLIN-6-YL)METHYL)-1H-PYRAZOLE-4-CARBOXAMIDE DERIVATIVES AS PLASMA KALLIKREIN INHIBITORS FOR THE TREATMENT OF HEREDITARY ANGIODEMA” (Takeda Pharmaceutical Company Limited, priority 2022, published 2026).

molecular target: human activated kallikrein enzyme (Homo sapiens, UniProt P03952); experiment: Inhibition of human activated plasma kallikrein, fluorogenic PFR-AMC substrate, 500 pM enzyme format; assay type: biochemical; settings: 500 pM activated kallikrein; 300 μM PFR-AMC; 30 min preincubation; 10 min room temperature; pH 7.5; read-out: Primary Dose Response Assay: Average EC50
Outline: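 Using fluorogenic PFR-AMC at 300 μM, cleavage by 500 pM human activated kallikrein ran 10 min at room temperature, read at 460 nm emission (380 nm excitation). Enzyme and compounds were first preincubated 30 min in 20 mM Tris pH 7.5, 150 mM NaCl, 1 mM EDTA, 0.1% PEG-400, 0.1% Triton X-100.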

Sequence of human activated kallikrein enzyme (P03952 391-638 limits assumed): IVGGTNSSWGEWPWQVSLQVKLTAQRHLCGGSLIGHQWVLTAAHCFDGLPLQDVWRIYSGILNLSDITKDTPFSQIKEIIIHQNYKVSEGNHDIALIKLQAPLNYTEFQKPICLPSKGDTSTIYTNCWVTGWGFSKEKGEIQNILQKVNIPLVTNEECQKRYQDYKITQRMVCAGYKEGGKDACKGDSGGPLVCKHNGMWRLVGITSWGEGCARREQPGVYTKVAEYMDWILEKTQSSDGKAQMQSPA
Sequence of human activated kallikrein enzyme (P03952 20-390 partner limits assumed): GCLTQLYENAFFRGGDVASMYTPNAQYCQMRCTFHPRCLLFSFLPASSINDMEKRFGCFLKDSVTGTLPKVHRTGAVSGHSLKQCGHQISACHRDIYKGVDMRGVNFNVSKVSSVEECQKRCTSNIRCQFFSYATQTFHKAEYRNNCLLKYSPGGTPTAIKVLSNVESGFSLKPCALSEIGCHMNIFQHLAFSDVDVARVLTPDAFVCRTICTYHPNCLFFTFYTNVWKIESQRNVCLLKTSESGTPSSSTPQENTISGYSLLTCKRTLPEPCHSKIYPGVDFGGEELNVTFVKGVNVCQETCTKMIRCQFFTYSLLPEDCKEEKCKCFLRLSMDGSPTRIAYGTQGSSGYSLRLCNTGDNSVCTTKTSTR

Row | EC50 | Structure (SMILES)
1 | > 1000 nM | Cc1cc2c(N)nccc2c(C)c1CNc1ccc2cnc(Cc3ccc4ncc(Cl)cc4c3)n2c1 [Example 520, 6-(((3-((3-chloroquinolin-6-yl)methyl)imidazo[1,5-a]pyridin-6-yl)amino)methyl)-5,7-dimethylisoquinolin-1-amine]
2 | 1 to 10 nM | Cc1cc2c(N)nccc2c(C)c1CNc1cc(NCc2ccc(Oc3ccccn3)cc2)ncn1 [Example 361, N^4-((1-amino-5,7-dimethylisoquinolin-6-yl)methyl)-N^6-(4-(pyridin-2-yloxy)benzyl)pyrimidine-4,6-diamine]
3 | < 1 nM | CCOC(=O)[C@@H]1[C@@H]2CN(C(=O)Cc3ccc(Cn4cc(C(=O)NCc5c(C)cc6c(N)nccc6c5C)cn4)cc3)C[C@@H]21 [Example 211, ethyl (1R,5S,6s)-3-(2-(4-((4-(((1-amino-5,7-dimethylisoquinolin-6-y1)methyl)carbamoyl)-1H-pyrazol-1-yl)methyl)phenyl)acetyl)-3-azabicyclo[3.1.0]hexane-6-carboxylate]
4 | < 1 nM | Cc1cc2c(N)nccc2c(C)c1CNC(=O)c1cnn(Cc2ccc(Oc3cc(Cl)cn(C)c3=O)cc2)c1 [Example 17, N-((1-amino-5,7-dimethylisoquinolin-6-yl)methyl)-1-(4-((5-chloro-1-methyl-2-oxo-1,2-dihydropyridin-3-yl)oxy)benzyl)-1H-pyrazole-4-carboxamide]
5 | > 1000 nM | Cc1cc2c(N)nccc2c(C)c1CNc1nccc2c1nnn2Cc1cn2cc(C3CC3)ccc2n1 [Example 254, 6-(((1-((6-cyclopropylimidazo[1,2-a]pyridin-2-yl)methyl)-1H-[1,2,3]triazolo[4,5-c]pyridin-4-yl)amino)methyl)-5,7-dimethylisoquinolin-1-amine]
6 | 100 to 1000 nM | Cc1cc2c(N)nccc2c(C)c1CNC(=O)c1cnn(Cc2cccc(F)c2)c1 [Example 45, N-((1-amino-5,7-dimethylisoquinolin-6-yl)methyl)-1-(3-fluorobenzyl)-1H-pyrazole-4-carboxamide]
7 | 10 to 100 nM | Cc1cc2c(N)nccc2c(C)c1CNC(=O)c1cnn(Cc2cc3ccccc3o2)c1 [Example 82, N-((1-amino-5,7-dimethylisoquinolin-6-yl)methyl)-1-(benzofuran-2-ylmethyl)-1H-pyrazole-4-carboxamide]
8 | < 1 nM | Cc1cc2c(N)nccc2c(C)c1CNC(=O)c1cn(Cc2ccc(CC(=O)N3CC4CC4C3)cc2)nc1F (stereo not drawn) [Example I-477, 1-(4-(2-(3-azabicyclo[3.1.0]hexan-3-yl)-2-oxoethyl)benzyl)-N-((1-amino-5,7-dimethylisoquinolin-6-yl)methyl)-3-fluoro-1H-pyrazole-4-carboxamide]
9 | 10 to 100 nM | Cc1cc2c(N)nccc2c(C)c1CNc1cc(OCc2cnc(N3CCCC3)nc2)ncn1 [Example 298, 5,7-dimethyl-6-(((6-((2-(pyrrolidin-1-yl)pyrimidin-5-yl)methoxy)pyrimidin-4-yl)amino)methyl)isoquinolin-1-amine]
10 | 1 to 10 nM | Cc1cc2c(N)nccc2c(C)c1CNC(=O)c1cnn(Cc2ccc(CC(=O)N3CC4CC(C4)C3)cc2)c1 [Example 215, 1-(4-(2-(3-azabicyclo[3.1.1]heptan-3-yl)-2-oxoethyl)benzyl)-N-((1-amino-5,7-dimethylisoquinolin-6-yl)methyl)-1H-pyrazole-4-carboxamide]
11 | < 1 nM | Cc1cc2c(N)nccc2c(C)c1CNc1cc(OCc2cn3nc(C4CC4)cc(CN4CCCC4)c3n2)ncn1 [Example 394, 6-(((6-((6-cyclopropyl-8-(pyrrolidin-1-ylmethyl)imidazo[1,2-b]pyridazin-2-yl)methoxy)pyrimidin-4-yl)amino)methyl)-5,7-dimethylisoquinolin-1-amine]
12 | 1 to 10 nM | Cc1cc2c(N)nccc2c(C)c1CNC(=O)c1cnn(Cc2ccc(Cc3ncccn3)cc2)c1 [Example 168, N-((1-amino-5,7-dimethylisoquinolin-6-yl)methyl)-1-(4-(pyrimidin-2-ylmethyl)benzyl)-1H-pyrazole-4-carboxamide]
